Laboratory results reported in patent US7342004B2, “Thioether sulphamate steroids as steroid inhibitors and anti-cancer compounds” (Sterix Ltd., priority 2000, dated 2008).
Read-outs that look alike come from different tables or passages of the source. Values belong to the compound of their own block, whether it stands above or below them.

Experiments:
Format in all cases: biochemical
CuZnSOD = CuZnSOD (UniProt P00442); test: Superoxide dismutase (SOD) spectrophotometric XTT assay, Protocol 1
steroid sulphatase (STS) = target: T1, steroid sulphatase (STS) (Homo sapiens, UniProt P08842); test: Inhibition of steroid sulphatase activity in placental microsomes, Protocol 4; conditions: for inhibition at 0.01 µM: read-out: Placental Microsomes, % inhibition 10 nM; for inhibition at 1 µM: read-out: Placental Microsomes, % inhibition 1 μM
T1 sequence (P08842 22-583): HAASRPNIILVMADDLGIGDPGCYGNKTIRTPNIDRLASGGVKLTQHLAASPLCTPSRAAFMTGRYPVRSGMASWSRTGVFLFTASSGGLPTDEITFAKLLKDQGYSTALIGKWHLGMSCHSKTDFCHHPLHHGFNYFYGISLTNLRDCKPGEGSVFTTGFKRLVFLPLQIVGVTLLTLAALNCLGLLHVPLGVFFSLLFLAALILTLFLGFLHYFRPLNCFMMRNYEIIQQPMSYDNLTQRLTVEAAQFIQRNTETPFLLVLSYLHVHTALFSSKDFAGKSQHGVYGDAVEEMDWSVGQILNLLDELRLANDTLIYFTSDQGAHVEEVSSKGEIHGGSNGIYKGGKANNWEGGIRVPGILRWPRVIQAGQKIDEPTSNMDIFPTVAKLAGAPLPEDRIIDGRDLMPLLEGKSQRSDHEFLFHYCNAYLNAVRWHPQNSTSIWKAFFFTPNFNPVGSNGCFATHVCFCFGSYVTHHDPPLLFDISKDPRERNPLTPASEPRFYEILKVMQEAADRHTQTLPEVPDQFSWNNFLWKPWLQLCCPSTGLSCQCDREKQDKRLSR
Procedure: Sulphatase-positive human placenta from normal term pregnancies are thoroughly minced with scissors and washed once with cold phosphate buffer (pH 7.4, 50 mM) then resuspended in cold phosphate buffer (5 ml/g tissue). Homogenisation is accomplished with an Ultra-Turrax homogeniser, using three 10 second bursts separated by 2 minute cooling periods in ice. Nuclei and cell debris are removed by centrifuging (4° C.) at 2000 g for 30 minutes and portions (2 ml) of the supernatant are stored at […] The protein concentration of the supernatants is determined by the method of Bradford (Anal. Biochem., 72, 248-254 (1976)).
Incubations (1 ml) are carried out using a protein concentration of […], substrate concentration of […] [6,7-3H]oestrone-3-sulphate (specific activity 60 Ci/mmol from New England Nuclear, Boston, Mass., U.S.A.) and an incubation time of 20 minutes at 37° C. If necessary eight concentrations of compounds are employed: 0 (i.e. control); 0.05 mM; 0.1 mM; 0.2 mM; 0.4 mM; 0.6 mM; 0.8 mM; 1.0 mM. After incubation each sample is cooled and the medium (1 ml) was pipetted into separate tubes containing [14C]oestrone (7×10^3 dpm) (specific activity 97 Ci/mmol from Amersham International Radiochemical Centre, Amersham, U.K.). The mixture is shaken thoroughly for 30 seconds with toluene (5 ml). Experiments have shown that >90% [14C]oestrone and <0.1% [3H]oestrone-3-sulphate is removed from the aqueous phase by this treatment. A portion (2 ml) of the organic phase was removed, evaporated and the 3H and 14C content of the residue determined by scintillation spectrometry. The mass of oestrone-3-sulphate hydrolysed is calculated from the 3H counts obtained (corrected for the volumes of the medium and organic phase used, and for recovery of [14C]oestrone added) and the specific activity of the substrate.
(§1) The STS inhibition provided by the compounds was determined in accordance with the placental microsomes assay of Protocol 4 and a plate assay.

STS = test: Plate assay, % inhibition
Procedure: as §1

[1] = xanthine oxidase/XTT, 24° C., 30 minutes, read-out: IC 50/μM (+/− SEM) SOD Inhibition
[2] = read-out: IC 50/μM (+/− SEM) SOD Inhibition, xanthine oxidase/XTT, 24° C., 30 minutes

IC50 (CuZnSOD; [1]): > 100 µM
Compound: C=CCc1cc2c(cc1O)CCC1C2CCC2(C)C(=O)CCC12 (centres unmarked) [Compound 15, 2-allylestrone]

IC50 (CuZnSOD; [1]): 11 µM
Compound: CCOc1cc2c(cc1O)CCC1C2CCC2(C)C(O)CCC12 (centres unmarked) [Compound 2, 2-ethoxyestradiol]

IC50 (CuZnSOD; [1]): > 100 µM
Compound: COc1cc2c(c([N+](=O)[O-])c1O)CCC1C2CCC2(C)C(=O)CCC12 (centres unmarked) [Compound 22, 2-methoxy-4-nitroestrone]

IC50 (CuZnSOD; [1]): 19 µM
Compound: CCOc1cc2c(cc1O)CCC1C2CCC2(C)C(=O)CCC12 (centres unmarked) [Compound 7, 2-ethoxyestrone]

IC50 (CuZnSOD; [1]): 83 µM
Compound: CC12CCC3c4cc(Cl)c(O)cc4CCC3C1CCC2=O (centres unmarked) [Compound 12, 2-chloroestrone]

IC50 (CuZnSOD; [1]): > 100 µM
Compound: CCc1cc2c(cc1OS(N)(=O)=O)CCC1C2CCC2(C)C(=O)CCC12 (centres unmarked) [Compound 26, 2-ethylestrone-3-O-sulphamate]

IC50 (CuZnSOD; [1]): 12 µM
Compound: COc1cc2c(cc1O)CCC1C2CCC2(C)C(O)CCC12 (stereo not drawn) [Compound 3, 2-methoxy-17β-estradiol, reference compound]

IC50 (CuZnSOD; [1]): 14 µM
Compound: CCSc1cc2c(cc1O)CCC1C2CCC2(C)C(O)CCC12 (centres unmarked) [Compound 6, 2-ethylsulfanylestradiol]

IC50 (CuZnSOD; [1]): > 100 µM
Compound: C[S+]([O-])c1cc2c(cc1O)CCC1C2CCC2(C)C(=O)CCC12 (centres unmarked) [Compound 18, 2-methylsulfoxyestrone]

IC50 (CuZnSOD; [1]): 81 µM
Compound: CC12CCC3c4cc(F)c(O)cc4CCC3C1CCC2=O (centres unmarked) [Compound 11, 2-fluoroestrone]

IC50 (CuZnSOD; [1]): 13 µM
Compound: COc1cc2c(cc1O)CCC1C2CCC2(C)C(O)CCC12 (stereo not drawn) [Compound 4, 2-methoxy-17α-estradiol]

IC50 (CuZnSOD; [1]): > 100 µM
Compound: CCc1cc2c(cc1O)CCC1C2CCC2(C)C(=O)CCC12 (centres unmarked) [Compound 21, 2-ethylestrone]

IC50 (CuZnSOD; [1]): 10 µM
Compound: CSc1cc2c(cc1O)CCC1C2CCC2(C)C(O)CCC12 (centres unmarked) [Compound 1, 2-methylsulfanylestradiol]

IC50 (CuZnSOD; [1]): > 100 µM
Compound: COc1cc2c(cc1O)CCC1C2CC[C@]2(C)CCCC12 (some centres unmarked) [Compound 29, 2-methoxy-17-deoxyoestrone]

IC50 (CuZnSOD; [1]): > 100 µM
Compound: CC12CCC3c4cc(C(F)F)c(O)cc4CCC3C1CCC2=O (centres unmarked) [Compound 17, 2-difluoromethylestrone]

IC50 (CuZnSOD; [1]): 79 µM
Compound: COc1cc2c(cc1N)CCC1C2CCC2(C)C(=O)CCC12 (centres unmarked) [Compound 9, 2-methoxy-3-aminoestrone]

IC50 (CuZnSOD; [1]): 14 µM
Compound: COc1cc2c(cc1O)CCC1C2CCC2(C)C(=O)CCC12 (centres unmarked) [Compound 5, 2-methoxyestrone, reference compound]

IC50 (CuZnSOD; [1]): > 100 µM
Compound: CC12CCC3c4cc([N+](=O)[O-])c(O)cc4CCC3C1CCC2=O (centres unmarked) [Compound 20, 2-nitroestrone]

Second part, the compound before the results:

Compound: CCSc1cc2c(cc1OS(N)(=O)=O)CCC1C2CC[C@]2(C)C(=O)CCC12 (some centres unmarked) [Compound 38]
inhibition at 0.01 µM (steroid sulphatase (STS)): < 5% | inhibition at 1 µM (steroid sulphatase (STS)): 66% | Plate Assay, % inhibition 0.1 μM (STS): <1% | Plate Assay, % inhibition 1 μM (STS): 1% | Plate Assay, % inhibition 10 μM (STS): 16%

Compound: CSc1cc2c(cc1OS(N)(=O)=O)CCC1C2CC[C@@]2(C)C1CC[C@@]2(O)Cc1ccccc1 (stereo in doubt) [Compound 30, Sulfamic acid 17-benzyl-17-hydroxy-13-methyl-2-methylsulfanyl-7,8,9,11,12,13,14, 15,16,17-decahydro-6H-cyclopenta[a]phenanthren-3-yl ester]
IC50 (steroid sulphatase (STS); placental microsomes): 0.044 µM | inhibition at 0.01 µM (steroid sulphatase (STS)): 15.5% | inhibition at 0.1 µM (steroid sulphatase (STS); read-out: Placental Microsomes, % inhibition 100 nM): 69.7% | inhibition at 1 µM (steroid sulphatase (STS)): 93% | inhibition at 10 µM (steroid sulphatase (STS); read-out: Placental Microsomes, % inhibition 10 μM): 97.4% | Plate Assay, % inhibition 0.1 μM (STS): <1% | Plate Assay, % inhibition 1 μM (STS): <1% | Plate Assay, % inhibition 10 μM (STS): 31%

Compound: CSc1cc2c(cc1O)CCC1C2CC[C@]2(C)C(=O)CCC12 (some centres unmarked) [Compound 8, 2-methylsulfanylestrone]
IC50 (CuZnSOD; [1]): 21 µM | Plate Assay, % inhibition 0.1 μM (STS): <1% | Plate Assay, % inhibition 1 μM (STS): 1% | Plate Assay, % inhibition 10 μM (STS): 11%

Compound: CSc1cc2c(cc1O)CCC1C2CC[C@]2(C)CCCC12 (some centres unmarked) [Compound 28, 2-methylsulfanyl-17-deoxyoestrone]
IC50 (CuZnSOD; [1]): > 100 µM

Compound: COc1cc2c(cc1O)CCC1C2CCC2(C)C1CCC2(O)Cc1ccccc1 (stereo not drawn) [Compound 13, 2-methoxy-17α-benzyl-estradiol]
IC50 (CuZnSOD; [2]): 88 µM

Compound: CC12CCC3C(=CCc4cc(OS(N)(=O)=O)ccc43)C1CCC2=O (centres unmarked) [Compound 27, equilin-3-O-sulphamate]
IC50 (CuZnSOD; [1]): > 100 µM

Compound: CCSc1cc2c(cc1O)CCC1C2CC[C@]2(C)C(=O)CCC12 (some centres unmarked) [Compound 10, 2-ethylsulfanylestrone]
IC50 (CuZnSOD; [1]): 79 µM | Plate Assay, % inhibition 0.1 μM (STS): <1% | Plate Assay, % inhibition 1 μM (STS): <4% | Plate Assay, % inhibition 10 μM (STS): 14%

Compound: CSc1cc2c(cc1O)CCC1C2CCC2(C)C1CCC2(O)Cc1ccc(C(C)(C)C)cc1 (centres unmarked) [Compound 31, 17-(4-tert-Butyl-benzyl)-13-methyl-2-methylsulfanyl-7,8,9,11,12,13,14,15,16,17-decahydro-6H-cyclopenta[a]phenanthrene-3,17-diol]
Plate Assay, % inhibition 0.1 μM (STS): <1% | Plate Assay, % inhibition 1 μM (STS): <1% | Plate Assay, % inhibition 10 μM (STS): 50%

Compound: CC12CCC3c4cc(I)c(O)cc4CCC3C1CCC2=O (centres unmarked) [Compound 16, 2-iodoestrone]
IC50 (CuZnSOD; [1]): > 100 µM

Compound: COc1cc2c3c(c(=O)oc2cc1O)CCCCC3 [Compound 14, 3-Hydroxy-2-methoxy-6-oxo-8,9,10,11-tetrahydro-7H-cyclohepta-[c][1]benzopyran]
IC50 (CuZnSOD; [1]): 91 µM

Compound: CSc1cc2c(cc1OS(N)(=O)=O)CCC1C2CCC2(C)C1CCC2(O)Cc1ccc(C(C)(C)C)cc1 (centres unmarked) [Compound 32, Sulfamic acid 17-(4-tert-butyl-benzyl)-17-hydroxy-13-methyl-2-methylsulfanyl-7,8,9,11,12,13,14,15,16,17-decahydro-6H-cyclopenta[a]phenanthren-3-yl ester]
inhibition at 1 µM (steroid sulphatase (STS)): 81.8% | Plate Assay, % inhibition 0.1 μM (STS): <1% | Plate Assay, % inhibition 1 μM (STS): <1% | Plate Assay, % inhibition 10 μM (STS): 48%

Compound: COc1cc2c(cc1O)CCC1C2CCC2(C)C1CCC2(O)Cc1ccc(C(C)(C)C)cc1 (stereo not drawn) [Compound 23, 2-methoxy-17α-(4-tert-butylbenzyl)oestradiol]
IC50 (CuZnSOD; [2]): > 100 µM

Compound: CC12CCC3c4cc(S(C)(=O)=O)c(O)cc4CCC3C1CCC2=O (centres unmarked) [Compound 19, 2-methylsulfonylestrone]
IC50 (CuZnSOD; [1]): > 100 µM
